This is an account of results in patent US7666646B2, “Crystal structure of human Pim-1 kinase protein complexes and binding pockets thereof, and uses thereof in drug design” (priority 2003, dated 2010).

Test [1] has as its target PKA (Homo sapiens, UniProt P17612). The conditions noted are these: in the presence of 50 μM LY294002; cited from earlier work.
Test [2] has as its system PI3K. The conditions noted are these: cited from earlier work.
Test [3] concerns the target Casein kinase 2 (CK2) (Homo sapiens, UniProt P68400). The conditions noted are these: Davies et al., supra; read-out: IC50 / potency of Casein kinase 2 inhibition; cited from earlier work.
In test [4] the target is Pim-1 (Homo sapiens, UniProt P11309). Briefly: Coupled-enzyme kinase assay with S6 peptide substrate (Pim-1 IC50 determination). The format is biochemical. Here is the method: The assay was carried out in a total volume of 100 μl in 0.1 M HEPES buffer (pH 7.6) containing 10 mM MgCl2, 2.5 mM phosphoenolpyruvate, 0.2 mM NADH, 30 μg/ml pyruvate kinase, 10 μg/ml lactate dehydrogenase (Roche Diagnostics Corp., Indianapolis, Ind.) and 2 mM DTT in a 96-well plate, and read at 340 nm at 30° C. on a Spectramax spectrophotometer (Molecular Devices, Sunnyvale, Calif.). […] The reaction was started by addition of ATP after 10 minutes pre-incubation of the reaction mixture at 30° C. […] Kinetic analysis was performed by non-linear regression fitting using the program Prism (GraphPad software, San Diego, Calif., USA).

Like-named read-outs stand apart in the source and are kept apart here.

Sequence of Pim-1 (P11309 whole entry): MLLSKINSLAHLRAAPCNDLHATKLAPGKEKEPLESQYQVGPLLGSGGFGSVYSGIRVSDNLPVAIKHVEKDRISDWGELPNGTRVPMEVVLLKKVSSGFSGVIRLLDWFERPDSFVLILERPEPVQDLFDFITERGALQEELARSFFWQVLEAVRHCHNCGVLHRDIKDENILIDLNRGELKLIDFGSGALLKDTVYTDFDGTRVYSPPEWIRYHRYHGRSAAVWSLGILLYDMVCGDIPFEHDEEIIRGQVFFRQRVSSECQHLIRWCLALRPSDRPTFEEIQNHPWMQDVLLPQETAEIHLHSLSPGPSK
Sequence of Casein kinase 2 (CK2) (P68400 whole entry): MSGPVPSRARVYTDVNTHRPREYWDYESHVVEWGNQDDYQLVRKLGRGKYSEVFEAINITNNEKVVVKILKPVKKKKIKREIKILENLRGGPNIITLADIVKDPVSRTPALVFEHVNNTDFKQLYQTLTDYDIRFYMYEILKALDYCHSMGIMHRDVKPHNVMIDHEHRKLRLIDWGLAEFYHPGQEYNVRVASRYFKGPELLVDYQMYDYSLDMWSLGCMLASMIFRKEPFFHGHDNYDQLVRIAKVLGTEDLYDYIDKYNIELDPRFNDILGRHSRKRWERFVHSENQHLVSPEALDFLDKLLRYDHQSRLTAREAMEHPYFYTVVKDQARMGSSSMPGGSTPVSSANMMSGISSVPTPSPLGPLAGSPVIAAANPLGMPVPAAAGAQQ

As to `O=c1cc(N2CCOCC2)oc2c(-c3ccccc3)cccc12` [LY294002, 2-(4-morpholinyl)-8-phenyl-4H-1-benzopyran-4-one], the “reduction of PKA activity” value in test [1] is 9%. The IC50 in test [2] (Davies et al., Biochem. J. 351: 95-105 (2000), read-out: potency of PI3K inhibition reported by Davies et al.) was […]; in test [2] (Mizuno et al., FEBS Lett. 330: 114-116 (1993) as cited, read-out: IC50 for PI3K, as originally described) it was […]; in test [3], 6.9 µM.

Turning to `COC(=O)[C@]1(O)C[C@@H]2O[C@@]1(C)n1c3ccccc3c3c4c(c5c6ccccc6n2c5c31)C(=O)NC4` [K-252a], the IC50 in test [4] was determined as 0.15 µM. For the same compound, in test [4] (panel of kinase inhibitors, refers to Table 1), the “potency of Pim-1 inhibition” value is given as “sub-micromolar”.
